# Assay results from US10266526B2, “Substituted 1,2,3-triazoles as SMYD inhibitors for treating cancer” (EPIZYME, INC., priority 2014, dated 2019).
# Biological target: SMYD2 (Homo sapiens (Human), UniProt Q9NRG4)
# Test: SMYD2 biochemical assay (SMYD2 enzyme assay on peptide substrate, 3H-SAM Flashplate)
# Conditions: not given
# Chain of SMYD2 (Q9NRG4 whole entry): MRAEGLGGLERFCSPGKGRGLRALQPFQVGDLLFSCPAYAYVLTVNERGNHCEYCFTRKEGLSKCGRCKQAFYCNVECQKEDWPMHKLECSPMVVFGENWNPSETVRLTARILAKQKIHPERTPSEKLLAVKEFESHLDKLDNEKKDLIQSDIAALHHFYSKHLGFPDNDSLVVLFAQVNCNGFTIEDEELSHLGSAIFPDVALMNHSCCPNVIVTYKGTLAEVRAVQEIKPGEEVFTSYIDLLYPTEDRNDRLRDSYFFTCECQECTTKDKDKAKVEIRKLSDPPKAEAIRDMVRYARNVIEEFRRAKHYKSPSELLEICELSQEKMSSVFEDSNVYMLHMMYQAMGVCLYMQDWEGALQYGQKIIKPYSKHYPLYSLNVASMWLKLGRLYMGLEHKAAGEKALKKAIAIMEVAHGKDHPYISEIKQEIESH
row,IC50 [µM],Structure (SMILES)
1,18.9,"C[C@H](c1ccccc1)N1C[C@@H](NC(=O)c2cn(C3CC3)nn2)C1(C)C (racemic) [compound 984, rac-1-cyclopropyl-N-((R)-2,2-dimethyl-1-((R)-1-phenylethyl)azetidin-3-yl)-1H-1,2,3-triazole-4-carboxamide]"

# Same assay, conditions: read-out: SMYD2 Biochem IC50; IC50 values are an average of n = 1 to n = 50
row,IC50 [µM],Structure (SMILES)
1,3.76,"COCCCN1CC(NC(=O)c2cn(C3CC3)nn2)C1 [compound 686, 1-cyclopropyl-N-[1-(3-methoxypropyl)azetidin-3-yl]-1H-1,2,3-triazole-4-carboxamide]"
2,4.79,"CC(c1ccc(OCCCN(C)C)cc1)N1CC(NC(=O)c2cn(C3CC3)nn2)C1 (stereo not shown) [compound 858, 1-cyclopropyl-N-[1-(1-{4-[3-(dimethylamino)propoxy]phenyl}ethyl)azetidin-3-yl]-1H-1,2,3-triazole-4-carboxamide]"
3,9.6,"CC(C)N1CC(NC(=O)c2cn(C3CC3)nn2)C1(C)C (stereo not shown) [compound 799, 1-cyclopropyl-N-[2,2-dimethyl-1-(propan-2-yl)azetidin-3-yl]-1H-1,2,3-triazole-4-carboxamide]"
4,0.088,"COc1ccc(C(C)N2CC(NC(=O)c3cn(C4CC4)nn3)C2)c(Cl)c1 (stereo not shown) [compound 845, N-{1-[1-(2-chloro-4-methoxyphenyl)ethyl]azetidin-3-yl}-1-cyclopropyl-1H-1,2,3-triazole-4-carboxamide]"
5,1.57,"CC(c1ccc(-n2ccnc2)cc1)N1CC(NC(=O)c2cn(C3CC3)nn2)C1 (stereo not shown) [compound 797, 1-cyclopropyl-N-(1-{1-[4-(1H-imidazol-1-yl)phenyl]ethyl}azetidin-3-yl)-1H-1,2,3-triazole-4-carboxamide]"
6,2.84,"CN1CC(NC(=O)c2cn(C3CC3)nn2)C1 [compound 659, 1-cyclopropyl-N-(1-methylazetidin-3-yl)-1H-1,2,3-triazole-4-carboxamide]"
7,0.088,"Cc1ccc(COc2ccc(C(C)N3CC(NC(=O)c4cn(C5CC5)nn4)C3)cc2)cc1 (stereo not shown) [compound 971, 1-cyclopropyl-N-(1-(1-(4-((4-methylbenzyl)oxy)phenyl)ethyl)azetidin-3-yl)-1H-1,2,3-triazole-4-carboxamide]"
8,4.53,"O=C(NC1CN(CCO)C1)c1cn(C2CC2)nn1 [compound 670, 1-cyclopropyl-N-[1-(2-hydroxyethyl)azetidin-3-yl]-1H-1,2,3-triazole-4-carboxamide]"
9,1.1,"O=C(NC1CN(Cc2ccc(OCc3cscn3)cc2)C1)c1cn(C2CC2)nn1 [compound 999, 1-cyclopropyl-N-(1-(4-(thiazol-4-ylmethoxy)benzyl)azetidin-3-yl)-1H-1,2,3-triazole-4-carboxamide]"
10,7.97,"COc1cccc2c1C(N1CC(NC(=O)c3cn(C4CC4)nn3)C1)CC2 (stereo not shown) [compound 762, 1-cyclopropyl-N-[1-(7-methoxy-2,3-dihydro-1H-inden-1-yl)azetidin-3-yl]-1H-1,2,3-triazole-4-carboxamide]"
11,0.713,"CC(c1ccc(OCC(=O)N2CCOCC2)cc1)N1CC(NC(=O)c2cn(C3CC3)nn2)C1 (stereo not shown) [compound 829, 1-cyclopropyl-N-[1-(1-(4-[2-(morpholin-4-yl)-2-oxoethoxy]phenyl}ethyl)azetidin-3-yl]-1H-1,2,3-triazole-4-carboxamide]"
12,0.0033,"O=C(NC1CN(Cc2cnn(Cc3ccc(Cl)cc3)c2)C1)c1cc(C2CC2)ccn1 [compound 930, N-(1-((1-(4-chlorobenzyl)-1H-pyrazol-4-yl)methyl)azetidin-3-yl)-4-cyclopropylpicolinamide]"
13,17,"CNCCN1CCC(CN2CC(NC(=O)c3cn(C4CC4)nn3)C2)C1=O (stereo not shown) [compound 756, 1-cyclopropyl-N-[1-({1-[2-(methylamino)ethyl]-2-oxopyrrolidin-3-yl}methyl)azetidin-3-yl]-1H-1,2,3-triazole-4-carboxamide]"
14,0.172,"CC(c1ccc(OCc2ccccc2)cc1)N1CC(NC(=O)c2cn(C3CC3)nn2)C1 (stereo not shown) [compound 692, N-(1-{1-[4-(benzyloxy)phenyl]ethyl}azetidin-3-yl)-1-cyclopropyl-1H-1,2,3-triazole-4-carboxamide]"
15,7.8,"C[C@H](c1ccccc1)N1CC(NC(=O)c2cc(C3CC3)cnn2)C1 [compound 647, 5-cyclopropyl-N-{1-[(1R)-1-phenylethyl]azetidin-3-yl}pyridazine-3-carboxamide]"
16,0.78,"CC(c1ccc(OCCc2ccccc2)cc1)N1CC(NC(=O)c2cn(C3CC3)nn2)C1 (stereo not shown) [compound 960, 1-cyclopropyl-N-(1-(1-(4-phenethoxyphenyl)ethyl)azetidin-3-yl)-1H-1,2,3-triazole-4-carboxamide]"
17,1.02,"COc1cccnc1C(C)N1CC(NC(=O)c2cn(C3CC3)nn2)C1 (stereo not shown) [compound 725, 1-cyclopropyl-N-{1-[1-(3-methoxypyridin-2-yl)ethyl]azetidin-3-yl}-1H-1,2,3-triazole-4-carboxamide]"
18,> 50,"CNC1CCOC(CN2CC(NC(=O)c3cn(C4CC4)nn3)C2)C1 (stereo not shown) [compound 758, 1-cyclopropyl-N-(1-{[4-(methylamino)oxan-2-yl]methyl}azetidin-3-yl)-1H-1,2,3-triazole-4-carboxamide]"
19,10.7,"CNC(=O)c1cccc(CN2CC(NC(=O)c3cn(C4CC4)nn3)C2)c1 [compound 726, 1-cyclopropyl-N-(1-{[3-(methylcarbamoyl)phenyl]methyl}azetidin-3-yl)-1H-1,2,3-triazole-4-carboxamide]"
20,0.421,"CC(c1ccccc1OCc1ccccc1)N1CC(NC(=O)c2cn(C3CC3)nn2)C1 (stereo not shown) [compound 796, N-(1-{1-[2-(benzyloxy)phenyl]ethyl}azetidin-3-yl)-1-cyclopropyl-1H-1,2,3-triazole-4-carboxamide]"
21,0.34,"CC[C@@H](c1cccc(Cl)c1)N1CC(NC(=O)c2cn(C3CC3)nn2)C1 [compound 837, N-{1-[(1S)-1-(3-chlorophenyl)propyl]azetidin-3-yl}-1-cyclopropyl-1H-1,2,3-triazole-4-carboxamide]"
22,19,"CC(NC(=O)c1cc(C2CC2)cnn1)C1CCCCN1 (stereo not shown) [compound 1003, 5-cyclopropyl-N-(1-(piperidin-2-yl)ethyl)pyridazine-3-carboxamide]"
23,0.488,"CC(c1cccc(Cl)c1Cl)N1CC(NC(=O)c2cn(C3CC3)nn2)C1 (stereo not shown) [compound 743, 1-cyclopropyl-N-{1-[1-(2,3-dichlorophenyl)ethyl]azetidin-3-yl}-1H-1,2,3-triazole-4-carboxamide]"
24,1.3,"O=C(NC1CN(Cc2ccc(OCc3cccnc3)cc2)C1)c1cn(C2CC2)nn1 [compound 972, 1-cyclopropyl-N-(1-(4-(pyridin-3-ylmemoxy)benzyl)azetidin-3-yl)-1H-1,2,3-triazole-4-carboxamide]"
25,0.022,"O=C(NC1CN(Cc2cnn(Cc3ccc(F)cc3)c2)C1)c1cn(C2CC2)nn1 [compound 951, 1-cyclopropyl-N-(1-((1-(4-fluorobenzyl)-1H-pyrazol-4-yl)methyl)azetidin-3-yl)-1H-1,2,3-triazole-4-carboxamide]"
26,> 50,"CC(C)N1CC(NC(=O)c2cn(CCO)nn2)C1 [compound 703, 1-(2-hydroxyethyl)-N-[1-(propan-2-yl)azetidin-3-yl]-1H-1,2,3-triazole-4-carboxamide]"

# Biological target: SMYD3 (Homo sapiens (Human), UniProt Q9H7B4)
# Sequence (Q9H7B4 whole entry): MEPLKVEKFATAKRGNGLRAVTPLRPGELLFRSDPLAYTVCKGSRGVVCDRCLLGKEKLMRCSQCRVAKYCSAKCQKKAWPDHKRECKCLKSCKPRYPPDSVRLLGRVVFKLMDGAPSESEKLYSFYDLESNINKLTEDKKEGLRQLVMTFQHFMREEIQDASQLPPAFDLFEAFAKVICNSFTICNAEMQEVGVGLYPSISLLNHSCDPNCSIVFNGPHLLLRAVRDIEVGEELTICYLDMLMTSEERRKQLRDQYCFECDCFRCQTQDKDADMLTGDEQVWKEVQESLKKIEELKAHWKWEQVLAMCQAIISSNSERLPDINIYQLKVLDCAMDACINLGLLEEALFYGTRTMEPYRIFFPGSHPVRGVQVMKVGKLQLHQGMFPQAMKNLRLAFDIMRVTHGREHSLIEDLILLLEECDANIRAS
# Test: SMYD3 cell assay (Trimethyl-MEKK2 In-Cell Western in 293T/17 cells transfected with MEKK2-flag and SMYD3)
# Assay type: cell-based
# Conditions: Table 3A; average of n = 1 to n = 50; read-out: SMYD3 cell IC50
# Source text: Trimethyl-MEKK2-in-Cell Western Assay
# MEM/Glutamax medium, Optimem Reduced Serum medium, penicillin-streptomycin, 0.05% trypsin and 1×D-PBS were purchased from Life Technologies, Grand Island, N.Y., USA. PBS-10× was purchased from Ambion, Life Technologies, Grand Island, N.Y., USA. PBS with Tween 20 (PBST (10×)) was purchased from KPL, Gaithersburg, Md., USA. Tet System FBS-approved FBS US Source was purchased from Clontech, Mountain View, Calif., USA. Odyssey blocking buffer, 800CW goat anti-rabbit IgG (H+L) antibody, 680CW Goat anti-mouse IgG (H+L) and Licor Odyssey infrared scanner were purchased from Licor Biosciences, Lincoln, Nebr., USA. Tri-methyl-Lysine [A260]-MEKK2 antibody, MEKK2 and SMYD3 plasmids were made at Epizyme. Anti-flag monoclonal mouse antibody was purchased from Sigma, St. Louis, Mo., USA. Methanol was purchased from VWR, Franklin, Mass., USA. 10% Tween 20 was purchased from KPL, Inc., Gaithersburg, Md., USA. Fugene was purchased from Promega, Madison, Wis., USA. The Biotek ELx405 was purchased from BioTek, Winooski, Vt., USA. The multidrop combi was purchased from Thermo Scientific, Waltham, Mass., USA.
# Cell Treatment, in Cell Western (ICW) for Detection of Trimethyl-Lysine-MEKK2 and MEKK2.
# Plasmids were prepared for delivery to cells by first mixing 1350 μL Opti-MEM with Fugene (81 μL) in a sterile Eppendorf and incubated for five minutes at room temperature (RT). […] Entire volume of Opti-MEM/Fugene mixture was then added to a microfuge tube containing DNA plasmid, mixed and then incubated ×15 minutes at RT. […] Medium was then removed, and cells were washed once with PBS in the flask. Trypsin 0.05% (3 mL) was added and cells incubated for three minutes. Room temperature MEM+10% Tet system FBS was added and cells were mixed gently, and counted using the Vi-cell. Cells were seeded at 100,000 cells/mL in 50 μL MEM/10% Tet FBS/Pen/Strep to a 384 well black/clear poly-D-lysine coated plate containing test agent diluted in DMSO. The final top concentration of test compound was 40 μM. […] Plates were incubated ×30 minutes at RT in low-airflow area, followed by incubation at 37° C. under 5% CO2 for 24 hours. Medium was aspirated from all wells of assay plates prior to fixation and permeabilization with ice cold (−20° C.) methanol (90 μL/well) for ten minutes. Plates were rinsed with PBS three times on BioTek ELx405. PBS was removed with a final aspiration, and Odyssey blocking buffer (50 μL/well) was added to each well and incubated for one hour at RT. Primary antibody solution was prepared (anti-trimethyl-MEKK2 at 1:600 dilution plus mouse anti-flag antibody at 1:10,000 dilution in diluent (Odyssey Blocking buffer+0.1% Tween 20)) and 20 μL per well was dispensed using the Multidrop Combi. Assay plates were then sealed with foil, and incubated overnight at 4° C. Plates were washed five times with PBS-Tween (1×) on Biotek ELx405 and blotted on paper towel to remove excess reagent.
# First, the ratio for each well was determined by:
# Each plate included fourteen control wells of DMSO only treatment (Minimum Inhibition) as well as fourteen control wells for maximum inhibition (Background). The average of the ratio values for each control type was calculated and used to determine the percent inhibition for each test well in the plate. Reference compound was serially diluted two-fold in DMSO for a total of nine test concentrations, beginning at 40 μM. Percent inhibition was calculated (below).
# Non-linear regression curves were generated to calculate the IC50 and dose-response relationship using triplicate wells per concentration of compound.
row,IC50 [µM],Structure (SMILES)
1,≥ 10,"C[C@H]1CC(NC(=O)c2cc3c(cc2Cl)NC(=O)C3)CCN1C(=O)[C@H]1CC[C@H](N)CC1 (stereo partly drawn) [compound 640, N-((2S)-1-((1r,4S)-4-aminocyclohexane-1-carbonyl)-2-methylpiperidin-4-yl)-6-chloro-2-oxoindoline-5-carboxamide]"
